Legend:
[1] = tested on: ALPK1-dependent NFκB reporter gene activation; test: NFκB gene reporter alkaline phosphatase assay in HEK293 G9 cells; type: cell-based; settings: Homo sapiens; HEK293 G9 cells stimulated with D-glycero-D-manno-6-fluoro-heptose-1β-S-ADP
Protocol: An alkaline phosphatase reporter assay system was used to measure inhibition of ALPK1-dependent NFκB reporter gene activation. Briefly, HEK293 cells stably expressing an NF-kB reporter (referred to herein as “G9 cells”) were maintained in DMEM as described above. For the assay, cells were seeded into 96-well plates at a density of 10,000 cells/well in Freestyle™ 293 Expression Medium (ThermoFisher), and allowed to attach overnight. Cells were pretreated with serially diluted compounds for 30 min and then stimulated with D-glycero-D-manno-6-fluoro-heptose-1β-S-ADP. […] NFkB gene activation was detected using the chromogenic substrate, para-nitrophenyl phosphate (pNPP) according to the manufacturer's protocols (pNPP Phosphatase Assay, Beyotime Biotechnology).

ALPK1 = ALPK1 (Homo sapiens (Human), UniProt Q96QP1); test: ALPK1 in vitro kinase assay (HTRF, TIFA phosphorylation); type: biochemical; settings: ADP-Heptose activated ALPK1
ALPK1, sequence (Q96QP1 whole entry): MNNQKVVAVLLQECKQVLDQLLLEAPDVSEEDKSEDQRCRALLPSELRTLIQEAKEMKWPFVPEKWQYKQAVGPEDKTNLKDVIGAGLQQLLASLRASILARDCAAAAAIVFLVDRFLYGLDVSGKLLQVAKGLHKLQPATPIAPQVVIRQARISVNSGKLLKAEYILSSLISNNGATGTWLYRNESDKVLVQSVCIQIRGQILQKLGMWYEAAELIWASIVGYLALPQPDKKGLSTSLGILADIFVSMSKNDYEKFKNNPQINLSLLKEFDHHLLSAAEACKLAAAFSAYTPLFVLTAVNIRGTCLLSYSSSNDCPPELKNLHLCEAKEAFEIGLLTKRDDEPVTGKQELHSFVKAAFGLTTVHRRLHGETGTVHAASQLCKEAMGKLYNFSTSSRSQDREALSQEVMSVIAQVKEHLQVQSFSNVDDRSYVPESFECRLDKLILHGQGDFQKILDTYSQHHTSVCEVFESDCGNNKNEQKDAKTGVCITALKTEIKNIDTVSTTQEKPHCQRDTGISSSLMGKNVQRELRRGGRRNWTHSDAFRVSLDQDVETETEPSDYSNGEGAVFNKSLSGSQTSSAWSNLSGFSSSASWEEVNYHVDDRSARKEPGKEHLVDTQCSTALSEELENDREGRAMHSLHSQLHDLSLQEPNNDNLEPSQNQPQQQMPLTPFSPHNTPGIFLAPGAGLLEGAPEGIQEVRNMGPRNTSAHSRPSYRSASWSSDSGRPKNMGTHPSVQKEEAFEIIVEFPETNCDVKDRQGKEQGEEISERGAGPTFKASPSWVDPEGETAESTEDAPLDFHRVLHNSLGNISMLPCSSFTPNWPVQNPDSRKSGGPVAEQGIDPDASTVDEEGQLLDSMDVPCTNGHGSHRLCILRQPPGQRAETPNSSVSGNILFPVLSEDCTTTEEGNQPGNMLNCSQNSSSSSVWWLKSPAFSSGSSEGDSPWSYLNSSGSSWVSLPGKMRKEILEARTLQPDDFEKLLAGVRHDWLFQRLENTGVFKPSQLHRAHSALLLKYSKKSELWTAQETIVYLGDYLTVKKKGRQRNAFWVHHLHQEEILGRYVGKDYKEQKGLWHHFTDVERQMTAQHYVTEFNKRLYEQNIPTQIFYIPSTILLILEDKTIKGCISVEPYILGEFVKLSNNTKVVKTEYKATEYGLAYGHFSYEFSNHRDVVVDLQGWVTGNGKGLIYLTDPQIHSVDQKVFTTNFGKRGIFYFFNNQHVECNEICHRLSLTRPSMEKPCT
Protocol: ALPK1 kinase activity was measured in an in vitro assay using ADP-Heptose as the ALPK1 ligand and activator of its kinase activity and TIFA protein as the ALPK1 phosphorylation substrate. Since phosphorylated TIFA proteins oligomerize, Homogeneous Time-Resolved Fluorescence (HTRF) was used to measure protein:protein interaction between HA-tagged TIFA proteins as an indicator of TIFA phosphorylation.
In brief, dose-response studies were performed with HEK293 cells cultured in Dulbecco's Modified Eagle Medium (DMEM) supplemented 10% fetal bovine serum (FBS, Hyclone™) containing antibiotics (pen/strep, G418) in 384-well assay plates. Each well contained 0.1 mg TIFA, ALPK1 (2 nM final concentration in reaction mixture) and kinase buffer (100 mM of HEPES pH 7.4, 4 mM DTT, 40 mM MgCl2, 20 mM of β-Glycerol phosphate disodium salt, 0.4 mM of Na3VO4, 0.16 mg/mL). Titrations of the test compounds were prepared in dimethylsulphoxide (DMSO). The reaction was initiated by addition of ATP and ADP-Heptose.
For HTRF, samples were incubated with a Tb cryptate-labeled anti-HA antibody for capturing HA-tagged proteins according to the manufacturer's instructions (PerkinElmer™, CisBio™) and the fluorescence signal was quantified (Tecan Infinite F NANO+). HTRF signals were calculated as the HTRF ratio (ratio of fluorescence measured at 665 nm and 620 nm)×104 (thereby using the signal at 620 nm as an internal standard).
IC50 values were determined using 3- or 4-parameter logistic equation using GraphPad Prism version 6.00. The reference compound, A027, was used as a positive control for each plate.

Compound | IC50 [1] | IC50 (ALPK1)
COc1cccc2sc(NC(=O)c3c(Cl)cc(N4CCNCC4)cc3Cl)nc12 [Compound T008, 2,6-dichloro-N-(4-methoxybenzo[d]thiazol-2-yl)-4-(piperazin-1-yl)benzamide] | 1.95 µM | 0.057 µM
CCCN1CCN(c2cc(F)c(C(=O)Nc3nc4c(OC)cccc4s3)c(F)c2)CC1 [Compound T005, 2,6-difluoro-N-(4-methoxybenzo[d]thiazol-2-yl)-4-(4-propylpiperazin-1-yl)benzamide] | 2.42 µM | 0.081 µM
COc1cccc2ccc(NC(=O)c3c(F)ccc(N4CCNCC4)c3F)nc12 [Compound Q005, 2,6-difluoro-N-(8-methoxyquinolin-2-yl)-3-(piperazin-1-yl)benzamide] | 1.37 µM | 0.258 µM
COc1cccc2sc(NC(=O)c3c(F)cc(N4CCN(Cc5ccccc5)C(=O)C4)cc3F)nc12 [Compound T024, 4-(4-benzyl-3-oxopiperazin-1-yl)-2,6-difluoro-N-(4-methoxybenzo[d]thiazol-2-yl)benzamide] | 1.15 µM | 0.321 µM
COc1cccc2ccc(NC(=O)c3c(F)cc(N4CCNCC4)cc3F)nc12 [Compound Q001, 2,6-difluoro-N-(8-methoxyquinolin-2-yl)-4-(piperazin-1-yl)benzamide] | 1.24 µM | 0.045 µM
COc1cccc2sc(NC(=O)c3c(F)cc(-c4cccc(C(=O)O)c4)cc3F)nc12 [Compound T003, 3′,5′-difluoro-4′-((4-methoxybenzo[d]thiazol-2-yl)carbamoyl)-[1,1′-biphenyl]-3-carboxylic acid] | 1.49 µM | 0.159 µM
O=C(Nc1nc2c(Br)cccc2s1)c1c(F)cccc1F [Compound T009, N-(4-bromobenzo[d]thiazol-2-yl)-2,6-difluorobenzamide] | 5.86 µM | 0.415 µM
COc1cccc2c(C)cc(NC(=O)c3c(F)cc(N4CCNCC4)cc3F)nc12 [Compound Q008, 2,6-difluoro-N-(8-methoxy-4-methylquinolin-2-yl)-4-(piperazin-1-yl)benzamide] | 2.92 µM | 0.149 µM
COc1cccc2ccc(NC(=O)c3c(F)ccc(CN4CCNCC4)c3F)nc12 [Compound Q004, 2,6-difluoro-N-(8-methoxyquinolin-2-yl)-3-(piperazin-1-ylmethyl)benzamide] | 4.3 µM | 0.033 µM
COc1cccc2sc(NC(=O)c3c(F)cc(N4CCC(O)CC4)cc3F)nc12 [Compound T028, 2,6-difluoro-4-(4-hydroxypiperidin-1-yl)-N-(4-methoxybenzo[d]thiazol-2-yl)benzamide] | 1.49 µM | 0.248 µM
O=C(Nc1nc2c(C3CC3)cccc2s1)c1c(F)cccc1F [Compound T012, N-(4-cyclopropylbenzo[d]thiazol-2-yl)-2,6-difluorobenzamide] | 5.95 µM | 0.97 µM
COc1cccc2sc(NC(=O)c3c(F)cc(N4CCOCC4)cc3F)nc12 [Compound T022, 2,6-difluoro-N-(4-methoxybenzo[d]thiazol-2-yl)-4-morpholinobenzamide] | 2.01 µM | 0.295 µM
COc1cccc2sc(NC(=O)c3c(F)cc(NCCN(C)C)cc3F)nc12 [Compound T013, 4-((2-(dimethylamino)ethyl)amino)-2,6-difluoro-N-(4-methoxybenzo[d]thiazol-2-yl)benzamide] | 5.22 µM | 0.507 µM
COc1cccc2sc(NC(=O)c3c(F)cc(NCCO)cc3F)nc12 [Compound T023, 2,6-difluoro-4-((2-hydroxyethyl)amino)-N-(4-methoxybenzo[d]thiazol-2-yl)benzamide] | 4.3 µM | 0.289 µM
C#Cc1cccc2sc(NC(=O)c3c(Cl)cc(N4CCNCC4)cc3Cl)nc12 [Compound T048, 2,6-dichloro-N-(4-ethynylbenzo[d]thiazol-2-yl)-4-(piperazin-1-yl)benzamide] | 7.13 µM | 0.009 µM
C#Cc1cccc2sc(NC(=O)c3c(F)cc(N4CC[C@H](N)C4)cc3F)nc12 [Compound T062, (S)-4-(3-aminopyrrolidin-1-yl)-N-(4-ethynylbenzo[d]thiazol-2-yl)-2,6-difluorobenzamide] | 0.88 µM | 0.089 µM
COc1cccc2sc(NC(=O)c3c(F)cc(N4CCNC(C)C4)cc3F)nc12 (stereo not drawn) [Compound T015, 2,6-difluoro-N-(4-methoxybenzo[d]thiazol-2-yl)-4-(3-methylpiperazin-1-yl)benzamide] | 4.47 µM | 0.349 µM
COc1cccc2sc(NC(=O)c3c(F)cc(N4CCNCC4)cc3Cl)nc12 [Compound T010, 2-chloro-6-fluoro-N-(4-methoxybenzo[d]thiazol-2-yl)-4-(piperazin-1-yl)benzamide] | 1.64 µM | 0.049 µM
O=C(Nc1nc2c(Br)cccc2s1)c1c(F)ccc(N2CCNCC2)c1F [Compound T016, N-(4-bromobenzo[d]thiazol-2-yl)-2,6-difluoro-3-(piperazin-1-yl)benzamide] | 2.22 µM | 0.047 µM
O=C(Nc1nc2c(O)cccc2s1)c1c(F)cc(N2CCNCC2)cc1F [Compound T045, 2,6-difluoro-N-(4-hydroxybenzo[d]thiazol-2-yl)-4-(piperazin-1-yl)benzamide] | 4.15 µM | 1.65 µM
C#Cc1cccc2sc(NC(=O)c3c(F)cc(N4CCOCC4)cc3F)nc12 [Compound T063, N-(4-ethynylbenzo[d]thiazol-2-yl)-2,6-difluoro-4-morpholinobenzamide] | 1.28 µM | 0.165 µM
O=C(Nc1nc2c(Br)cccc2s1)c1c(F)cc(CN2CCNCC2)cc1F [Compound T020, N-(4-bromobenzo[d]thiazol-2-yl)-2,6-difluoro-4-(piperazin-1-ylmethyl)benzamide] | 1.57 µM | 0.1 µM
COc1cccc2sc(NC(=O)c3c(F)cc(N4CC5CC(C4)N5)cc3F)nc12 [Compound T001, 4-(3,6-diazabicyclo[3.1.1]heptan-3-yl)-2,6-difluoro-N-(4-methoxybenzo[d]thiazol-2-yl)benzamide] | 1.31 µM | 0.095 µM
C#Cc1cccc2sc(NC(=O)c3c(F)cc(-n4ccnc4)cc3F)nc12 [Compound T066, N-(4-ethynylbenzo[d]thiazol-2-yl)-2,6-difluoro-4-(1H-imidazol-1-yl)benzamide] | 1.56 µM | 0.367 µM
COc1cccc2sc(NC(=O)c3c(F)cc(N4CCN(CCO)CC4)cc3F)nc12 [Compound T025, 2,6-difluoro-4-(4-(2-hydroxyethyl)piperazin-1-yl)-N-(4-methoxybenzo[d]thiazol-2-yl)benzamide] | 2.92 µM | 0.148 µM
CCN1CCN(c2cc(F)c(C(=O)Nc3nc4c(OC)cccc4s3)c(F)c2)CC1 [Compound T004, 4-(4-ethylpiperazin-1-yl)-2,6-difluoro-N-(4-methoxybenzo[d]thiazol-2-yl)benzamide] | 1.98 µM | 0.131 µM
COc1cc(Cl)cc2sc(NC(=O)c3c(F)cc(N4CCNCC4)cc3F)nc12 [Compound T043, N-(6-chloro-4-methoxybenzo[d]thiazol-2-yl)-2,6-difluoro-4-(piperazin-1-yl)benzamide] | 3.98 µM | 0.401 µM
